Values of other authors in US20080075681A1, “Method and composition for permanently shaping hair” (priority 2006, published 2008).

Conditions: compared to N-methylmercaptoacetamide and N-hydroxyethylmercaptoacetamide; EP 0969791 B1

## O=C(CS)NCCCO [N-(3′-hydroxypropyl)-2-mercapto-acetamide]
  sensitization rates: substantially lower
